Data: article PMC6401633, “Evidence for Effective Multiple K^+-Current Inhibitions by Tolvaptan, a Non-peptide Antagonist of Vasopressin V2 Receptor” (Frontiers in Pharmacology, 2019)

Target: T1, large-conductance Ca2+-activated K+ (BKCa) channel (Rattus norvegicus, UniProt Q62976)
T1 construct: gene Kcnma1; native channel in inside-out membrane patches of GH3 cells
Experiment: single-channel patch clamp, inside-out; open probability […] to […] at […], no significant change at […]
Assay type: cell-based

T1 sequence (Q62976 whole entry): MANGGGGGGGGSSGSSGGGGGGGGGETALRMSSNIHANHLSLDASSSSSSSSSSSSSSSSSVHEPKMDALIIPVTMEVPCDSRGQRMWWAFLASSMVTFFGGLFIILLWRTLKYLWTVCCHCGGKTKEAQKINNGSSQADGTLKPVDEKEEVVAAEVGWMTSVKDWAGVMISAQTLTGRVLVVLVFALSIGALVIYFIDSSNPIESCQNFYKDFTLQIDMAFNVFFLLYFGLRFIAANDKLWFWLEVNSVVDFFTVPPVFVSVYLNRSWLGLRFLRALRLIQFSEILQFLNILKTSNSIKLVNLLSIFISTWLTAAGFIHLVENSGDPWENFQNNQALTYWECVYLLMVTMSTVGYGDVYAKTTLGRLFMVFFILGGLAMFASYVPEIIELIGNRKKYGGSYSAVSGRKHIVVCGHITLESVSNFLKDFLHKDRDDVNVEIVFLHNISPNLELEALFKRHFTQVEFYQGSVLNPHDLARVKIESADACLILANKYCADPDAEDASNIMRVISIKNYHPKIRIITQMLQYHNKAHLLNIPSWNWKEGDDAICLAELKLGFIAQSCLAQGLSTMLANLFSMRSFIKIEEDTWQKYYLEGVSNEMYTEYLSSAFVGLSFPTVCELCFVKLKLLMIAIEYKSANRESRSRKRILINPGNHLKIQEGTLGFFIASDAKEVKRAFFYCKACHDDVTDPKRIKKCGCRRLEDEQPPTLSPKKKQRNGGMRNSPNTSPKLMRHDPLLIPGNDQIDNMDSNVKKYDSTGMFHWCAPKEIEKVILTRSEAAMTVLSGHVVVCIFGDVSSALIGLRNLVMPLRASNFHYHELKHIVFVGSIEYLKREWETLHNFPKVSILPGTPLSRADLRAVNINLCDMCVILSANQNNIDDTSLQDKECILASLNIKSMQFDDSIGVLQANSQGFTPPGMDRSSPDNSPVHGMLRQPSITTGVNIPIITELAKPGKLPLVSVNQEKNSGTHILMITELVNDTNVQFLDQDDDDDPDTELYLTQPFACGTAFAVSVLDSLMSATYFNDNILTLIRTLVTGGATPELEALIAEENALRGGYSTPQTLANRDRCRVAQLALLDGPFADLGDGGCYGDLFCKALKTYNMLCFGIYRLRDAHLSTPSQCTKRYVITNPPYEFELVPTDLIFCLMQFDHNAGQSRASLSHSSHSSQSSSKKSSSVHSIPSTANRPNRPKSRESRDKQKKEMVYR

## Cc1ccccc1C(=O)Nc1ccc(C(=O)N2CCCC(O)c3cc(Cl)ccc32)c(C)c1 (stereo not shown) [TLV, N-[4-[(7-chloro-2,3,4,5-tetrahydro-5-hydroxy-1H-1-benzazepin-1-yl)carbonyl]-3-methylphenyl]-2-methylbenzamide]
  single-channel patch clamp, inside-out; open probability 0.0191 to 0.0143 at 30: 30 µM
